Experiment: molar heat capacity at constant volume
Conditions: Mass density=329.2 kg/m3

CC(C)O [propan-2-ol]
molar heat capacity at constant volume [J/K/mol]
Conditions | Fluid (supercritical or subcritical phases) | Liquid
501.04 K | 310.87 | –
501.14 K | 313.94 | –
501.23 K | 314.06 | –
501.33 K | 310.75 | –
501.42 K | 316.76 | –
501.53 K | 318.08 | –
501.62 K | 320.49 | –
501.81 K | 316.64 | –
501.9 K | 317.06 | –
503.92 K | 322.05 | –
504.02 K | 325.72 | –
504.11 K | 323.31 | –
504.31 K | 318.86 | –
504.5 K | 325.72 | –
504.59 K | 319.65 | –
504.98 K | 328.36 | –
505.08 K | 326.92 | –
505.27 K | 325.96 | –
505.37 K | 325.35 | –
506.43 K | 328.06 | –
506.53 K | 330.64 | –
506.62 K | 335.93 | –
506.72 K | 332.69 | –
506.82 K | 332.27 | –
506.97 K | 330.22 | –
507.11 K | 342.54 | –
507.2 K | 339.6 | –
507.3 K | 339.42 | –
507.4 K | 335.93 | –
507.5 K | 343.02 | –
507.59 K | 338.94 | –
507.69 K | 354.86 | –
507.79 K | 347.95 | –
507.89 K | 352.76 | –
508.04 K | 358.17 | –
508.16 K | 363.76 | 218.14
508.18 K | – | 208.53
508.28 K | – | 195.91
508.37 K | – | 187.8
508.47 K | – | 185.69
508.57 K | – | 186.9
508.67 K | – | 192.91
508.76 K | – | 186.9
509.35 K | – | 179.56
509.45 K | – | 180.16
509.55 K | – | 178.84
509.64 K | – | 179.98
509.79 K | – | 177.46
509.99 K | – | 177.28
510.14 K | – | 178.12
510.23 K | – | 177.94
510.33 K | – | 176.68
510.48 K | – | 178.6
516.9 K | – | 176.74
516.99 K | – | 176.8
517.08 K | – | 176.8
517.27 K | – | 172.17
521.87 K | – | 173.13
521.96 K | – | 168.57
522.14 K | – | 173.19
522.33 K | – | 168.63
522.42 K | – | 171.63
522.51 K | – | 173.85
522.6 K | – | 175.18
530.01 K | – | 168.39
532.04 K | – | 168.27
535.11 K | – | 168.33
540.06 K | – | 168.39
545.13 K | – | 168.63
560.04 K | – | 169.77
570.09 K | – | 173.85
580.16 K | – | 174.22
590.07 K | – | 176.38
600.1 K | – | 178.6
